Read-outs that look alike come from different tables or passages of the source. Where a SMILES comes first, the peptide text is derived from it. [ ]: non-standard residue; d: D form. The star is where a group is joined. Malonyl(2,2-Me2,histaminyl) = CC(C)(C(=O)NCCc1cnc[nH]1)C(=O)*; d(hArg) = N=C(N)NCCCC[C@@H](N)C(=O)O; Gly(NCH2CH2Ph) = O=C(O)CNCCc1ccccc1; Hyp = O=C(O)[C@@H]1C[C@@H](O)CN1; hArg = N=C(N)NCCCC[C@H](N)C(=O)O; NMeN = CN[C@@H](CC(N)=O)C(=O)O; Aoc(2) = CCCCCC[C@H](N)C(=O)O; Phg = N[C@H](C(=O)O)c1ccccc1; Nle = CCCC[C@H](N)C(=O)O

The target in experiment [1] is T1, human orexin type 1 receptor (hOX1R) (Homo sapiens, UniProt O43613).
T1 construct: expressed in transfected cells
T1 sequence (O43613 1-425): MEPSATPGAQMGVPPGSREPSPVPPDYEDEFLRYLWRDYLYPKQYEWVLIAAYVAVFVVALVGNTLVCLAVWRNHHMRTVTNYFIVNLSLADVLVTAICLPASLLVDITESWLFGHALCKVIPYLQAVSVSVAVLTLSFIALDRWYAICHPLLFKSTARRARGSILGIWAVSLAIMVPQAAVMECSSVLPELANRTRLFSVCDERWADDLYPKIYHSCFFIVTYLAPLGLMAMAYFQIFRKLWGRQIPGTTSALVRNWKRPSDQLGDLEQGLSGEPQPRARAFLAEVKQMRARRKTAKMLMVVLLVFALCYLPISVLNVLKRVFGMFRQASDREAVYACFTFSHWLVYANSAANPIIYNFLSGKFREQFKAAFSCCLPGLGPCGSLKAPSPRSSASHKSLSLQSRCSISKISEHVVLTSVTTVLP
Nature of the experiment: Measurement of orexin type 1 receptor agonist activity (CHO cells, FLIPR TETRA intracellular Ca2+). The format is cell-based. The source says: (§1) In some embodiments, the assay uses cells stably expressing either human orexin type 2 or human orexin type 1 receptor. In some embodiments, the cells are obtained by inserting the Orexin receptor cDNA into pcDNA3.1(+) plasmid vector, identifying clones by G418 drug resistance selection, and/or growing a single clone for OX2R-CHO and OX1R-CHO in bulk. In some embodiments, the assay is detected using Fluorescent Imaging Plate Reader TETRA (FLIPR TETRA: manufactured by Molecular Devices). In some embodiments, the agonist activity of the test peptide is calculated assuming that the fluorescence value of the well containing only the dilution buffer is 0% and the fluorescence value of the well containing 10 nM human orexin A (Tocris) buffer is 100%.
(§2) Stable cell line generation. Obtainment of cells stably expressing either human orexin type 2 or human orexin type 1 receptor: to obtain a stable cell line the Orexin receptor cDNA was inserted into pcDNA3.1(+) plasmid vector and clones identified by G418 drug resistance selection. […] A single clone for OX2R-CHO and OX1R-CHO were grown in bulk and frozen to generate a cell bank for routine screening.
(§3) Measurement of orexin type 1 receptor agonist activity. Chinese hamster ovary (CHO) cells expressing human orexin type 1 receptor (hOX1R) were seeded in each well of 384 well black clear bottom plates (BD Flacon) at 10,000 cells per well and cultured for 24 h in an Ham's F12 (Gibco) medium containing 10% fetal calf serum (Sigma Aldrich) under the conditions of 37° C., 5% CO2. After removal of the medium, 50 μL of assay buffer 1 (0.1% bovine serum albumin (Sigma Aldrich), 20 mM HEPES (Molecular Dimensions), […] probenecid (Sigma Aldrich), 1× Calcium 5 dye (Molecular Devices) in Hank's balanced salt solution (Invitrogen)) was added, and the cells were incubated for 60 min under the conditions of 37° C., 5% CO2. A test peptide was dissolved in dimethyl sulfoxide (Sigma Aldrich) to 1 mM, and then diluted with assay buffer 2 (20 mM HEPES, Hank's balanced salt solution, 0.1% bovine serum albumin). For the reaction, a test peptide solution (10 μl) was added using Fluorescent Imaging Plate Reader TETRA (FLIPR TETRA: manufactured by Molecular Devices), a fluorescence value (excitation wavelength 488 nm, measurement wavelength 570 nm) of each well was measured every one second for 2 min, and the agonist activity was determined using the area of the fluorescence value as an indicator of intracellular Ca^2+ concentration. The agonist activity of the test peptide was calculated assuming that the fluorescence value of the well added with only the dilution buffer was 0% and the fluorescence value of the well added with 10 nM human orexin A (Tocris) buffer was 100%. As used herein, Emax indicates the value at 1 μM concentration when orexin A is converted to a full agonist (maximum value of agonist activity: 100%).

For experiment [2], the target named is T2, human orexin type 2 receptor (hOX2R) (Homo sapiens, UniProt O43614).
T2 construct: expressed in transfected cells
T2 sequence (O43614 1-444): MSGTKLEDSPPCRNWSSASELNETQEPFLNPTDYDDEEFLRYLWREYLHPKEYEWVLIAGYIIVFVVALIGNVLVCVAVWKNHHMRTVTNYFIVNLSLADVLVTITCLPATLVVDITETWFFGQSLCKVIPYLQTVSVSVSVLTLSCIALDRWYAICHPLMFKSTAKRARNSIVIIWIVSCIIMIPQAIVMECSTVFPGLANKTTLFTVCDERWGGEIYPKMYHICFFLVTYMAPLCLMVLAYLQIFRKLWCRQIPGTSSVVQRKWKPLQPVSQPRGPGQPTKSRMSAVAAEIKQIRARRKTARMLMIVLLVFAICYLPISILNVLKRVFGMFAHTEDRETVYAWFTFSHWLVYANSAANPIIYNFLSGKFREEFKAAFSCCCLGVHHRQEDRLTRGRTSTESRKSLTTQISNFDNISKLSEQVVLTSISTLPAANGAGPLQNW
Description: Measurement of orexin type 2 receptor agonist activity (CHO cells, FLIPR TETRA intracellular Ca2+). The class given is cell-based.
From the text: as §1, §2
as §3, with “type 2” for “type 1”, “receptor (hOX2R)” for “receptor (hOX1R) were”

Where [3] appears, read: CHO cells expressing hOX1R, Ca2+ fluorescence, read-out: hOX1 pEC50 (converted).
The mark [4] stands for this setting: CHO cells expressing hOX2R, Ca2+ fluorescence, read-out: hOX2 pEC50 (converted).

In the case of `CCCCCC[C@H](NC(=O)[C@@H](NC(=O)[C@H](CC(C)C)NC(=O)[C@@H](NC(=O)CNC(=O)[C@@H](NC(=O)[C@H](C)NC(=O)[C@@H]1C[C@@H](O)CN1C(=O)[C@H](CC(N)=O)N(C)C(=O)CN(CCc1ccccc1)C(=O)[C@H](CCCNC(=N)N)NC(=O)[C@@H]1CCCN1C(=O)[C@@H](CCCCNC(=N)N)NC(=O)[C@@H](CCC(N)=O)NC(=O)C(C)(C)C(=O)NCCc1cnc[nH]1)c1ccccc1)[C@@H](C)CC)[C@@H](C)O)C(N)=O` [compound 7] ({Malonyl(2,2-Me2,histaminyl)}-[dQ][d(hArg)]PR[Gly(NCH2CH2Ph)][NMeN][Hyp]A[Phg]GILT[Aoc(2)]-NH2), the EC50 was more than 10 nM in experiment [1] and less than 0.1 nM in experiment [2].

As for `CCCCCC[C@H](NC(=O)[C@@H](NC(=O)[C@H](CC(C)C)NC(=O)[C@@H](NC(=O)CNC(=O)[C@@H](NC(=O)[C@H](C)NC(=O)[C@@H]1C[C@@H](O)CN1C(=O)[C@H](CC(N)=O)N(C)C(=O)CN(CCc1ccccc1)C(=O)[C@H](CCCCN)NC(=O)[C@@H]1CCCN1C(=O)[C@H](CCCCNC(=N)N)NC(=O)[C@H](CCC(N)=O)NC(=O)C(C)(C)C(=O)NCCc1cnc[nH]1)c1ccccc1)[C@@H](C)CC)[C@@H](C)O)C(N)=O` [compound 8] ({Malonyl(2,2-Me2,histaminyl)}-Q[hArg]PK[Gly(NCH2CH2Ph)][NMeN][Hyp]A[Phg]GILT[Aoc(2)]-NH2), the figures for the EC50 in experiment [1] and in experiment [2] were more than 10 nM and less than 0.1 nM, respectively.

As to `CCCCCC[C@H](NC(=O)[C@@H](NC(=O)[C@H](CC(C)C)NC(=O)[C@@H](NC(=O)CNC(=O)[C@@H](NC(=O)[C@H](C)NC(=O)[C@@H]1C[C@@H](O)CN1C(=O)[C@H](CC(N)=O)NC(=O)CN(CCc1ccccc1)C(=O)[C@H](CCCNC(=N)N)NC(=O)[C@@H]1C[C@@H](O)CN1C(=O)[C@@H]1C[C@@H](O)CN1C(=O)[C@@H]1C[C@@H](O)CN1)c1ccccc1)[C@@H](C)CC)[C@@H](C)O)C(N)=O` [compound 9] (H-[Hyp][Hyp][Hyp]R[Gly(NCH2CH2Ph)]N[Hyp]A[Phg]GILT[Aoc(2)]-NH2), the results for the EC50 in experiment [1] (setting [3]) and in experiment [2] (setting [4]) were more than 10 nM and less than 0.1 nM, respectively.

For `CCCC[C@H](NC(=O)[C@@H](NC(=O)[C@H](CC(C)C)NC(=O)[C@@H](NC(=O)CNC(=O)[C@@H](NC(=O)[C@H](C)NC(=O)[C@H](Cc1c[nH]cn1)NC(=O)[C@H](CC(N)=O)NC(=O)CNC(=O)[C@H](CO)NC(=O)[C@H](C)NC(=O)[C@H](Cc1c[nH]c2ccccc12)NC(=O)[C@@H](CC(C)C)NC(=O)[C@@H](N)Cc1ccccc1)c1ccccc1)[C@@H](C)CC)[C@@H](C)O)C(N)=O` [compound 10] (H-F[dL]WASGNHA[Phg]GILT[Nle]-NH2), the EC50 in experiment [1] (setting [3]) is more than 10 nM; in experiment [2] (setting [4]), less than 0.1 nM.

For the molecule `CCCC[C@H](NC(=O)[C@@H](NC(=O)[C@H](CC(C)C)NC(=O)[C@@H](NC(=O)CNC(=O)[C@@H](NC(=O)[C@H](C)NC(=O)[C@H](Cc1c[nH]cn1)NC(=O)[C@H](CC(N)=O)NC(=O)CNC(=O)[C@H](CO)NC(=O)[C@H](C)NC(=O)[C@H](Cc1c[nH]c2ccccc12)NC(=O)[C@@H](CC(C)C)NC(=O)[C@@H](N)CC(C)C)c1ccccc1)[C@@H](C)CC)[C@@H](C)O)C(N)=O` [compound 11] (H-L[dL]WASGNHA[Phg]GILT[Nle]-NH2), the EC50 in experiment [1] (setting [3]) is more than 10 nM; in experiment [2] (setting [4]), less than 0.1 nM.

Regarding `CCCC[C@H](NC(=O)[C@@H](NC(=O)[C@H](CC(C)C)NC(=O)[C@@H](NC(=O)CNC(=O)[C@H](C)NC(=O)[C@H](C)NC(=O)[C@H](Cc1c[nH]cn1)NC(=O)[C@H](CC(N)=O)NC(=O)CNC(=O)[C@H](CO)NC(=O)[C@@H](C)NC(=O)[C@@H](Cc1ccccc1)NC(=O)[C@H](CC(C)C)NC(=O)[C@@H](N)CC(C)C)[C@@H](C)CC)[C@@H](C)O)C(N)=O` [compound 12] (H-LL[dF][dA]SGNHAAGILT[Nle]-NH2), the EC50 is more than 10 nM in experiment [1] (setting [3]) and less than 0.1 nM in experiment [2] (setting [4]).

`CCCC[C@H](NC(=O)[C@@H](NC(=O)[C@H](CC(C)C)NC(=O)[C@@H](NC(=O)CNC(=O)[C@H](C)NC(=O)[C@H](C)NC(=O)[C@H](Cc1c[nH]cn1)NC(=O)[C@H](CC(N)=O)NC(=O)CNC(=O)[C@H](CO)NC(=O)[C@@H](C)NC(=O)[C@@H](Cc1ccccc1)NC(=O)[C@H](CC(C)C)NC(=O)[C@@H](N)Cc1ccccc1)[C@@H](C)CC)[C@@H](C)O)C(N)=O` [compound 13] (H-FL[dF][dA]SGNHAAGILT[Nle]-NH2): the EC50 was more than 10 nM in experiment [1] (setting [3]) and less than 0.1 nM in experiment [2] (setting [4]).

Turning to `CCCC[C@H](NC(=O)[C@@H](NC(=O)[C@H](CC(C)C)NC(=O)[C@@H](NC(=O)CNC(=O)[C@H](C)NC(=O)[C@H](C)NC(=O)[C@H](Cc1c[nH]cn1)NC(=O)[C@H](CC(N)=O)NC(=O)CNC(=O)[C@H](CO)NC(=O)[C@@H](C)NC(=O)[C@@H](Cc1ccccc1)NC(=O)[C@@H](CC(C)C)NC(=O)[C@@H](N)CC(C)C)[C@@H](C)CC)[C@@H](C)O)C(N)=O` [compound 14] (H-L[dL][dF][dA]SGNHAAGILT[Nle]-NH2), the EC50 in experiment [1] (setting [3]) was more than 10 nM; in experiment [2] (setting [4]), less than 0.1 nM.

Regarding `CCCCCC[C@H](NC(=O)[C@@H](NC(=O)[C@H](CC(C)C)NC(=O)[C@@H](NC(=O)CNC(=O)[C@@H](NC(=O)[C@H](C)NC(=O)[C@@H]1C[C@@H](O)CN1C(=O)[C@H](CC(N)=O)NC(=O)CN(CCc1ccccc1)C(=O)[C@H](CCCNC(=N)N)NC(=O)[C@H](CCCNC(=N)N)NC(=O)[C@@H]1C[C@@H](O)CN1C(=O)[C@@H]1C[C@@H](O)CN1C(=O)[C@@H]1C[C@@H](O)CN1)c1ccccc1)[C@@H](C)CC)[C@@H](C)O)C(N)=O` [compound 15] (H-[Hyp][Hyp][Hyp]RR[Gly(NCH2CH2Ph)]N[Hyp]A[Phg]GILT[Aoc(2)]-NH2), the EC50 was 1 to 10 nM in experiment [1] (setting [3]) and less than 0.1 nM in experiment [2] (setting [4]).

The values above are taken from patent US20250277001A1, “PEPTIDE DERIVATIVES AND RELATED USES AS OREXIN AGONISTS” (CENTESSA PHARMACEUTICALS (UK) LIMITED, priority 2022, published 2025).
